How the values were obtained:
Sunflower = assay: Test C preemergence; assay type: in vivo; conditions: scale 0 to 100
[1] = tested on: common ragweed (Ambrosia elatior); assay: Test C preemergence; assay type: in vivo; conditions: for Plant response rating (0 to 100), Ragweed, Common: visual evaluation after 12 to 14 days
Method in brief: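 Compounds in non-phytotoxic solvent with surfactant applied preemergence to planted seeds and postemergence to plants at 1- to 4-leaf stage (2–18 cm). Kept in greenhouse 12–14 days, then visually rated against controls on a 0 (no effect) to 100 (complete control) scale.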

[2] = Rate 62 g/ha, scale 0 to 100, 0 no effect, 100 complete control
[3] = preemergence, Rate 31 g/ha, scale 0 to 100
[4] = preemergence, Rate 125 g/ha, scale 0 to 100, 0 no effect, 100 complete control
[5] = Rate 125 g/ha, scale 0 to 100, 0 no effect, 100 complete control
[6] = preemergence, Rate 250 g/ha, scale 0 to 100, 0 no effect, 100 complete control
[7] = preemergence, Rate 62 g/ha, scale 0 to 100
[8] = Preemergence, Rate 500 g/ha, scale 0 to 100

Structure (SMILES) | Plant response rating, Ragweed, Common [1, 4] | Plant response rating, Ragweed, Common [1, 5] | Plant response rating (0 to 100), Ragweed, Common ([1]; preemergence, Rate 500 g/ha) | Plant response rating, Ragweed, Common [1, 6] | Plant response rating, Sunflower (Sunflower; Rate 62 g/ha) | Plant response rating, Ragweed, Common [1, 7] | further results
CC(C)(C)c1ccn(C2CCN(c3cccc(Cl)c3)C2=O)n1 (stereo not drawn) [Compound 43] | 30 | – | – | – | – | – | Plant response rating, Sunflower (Sunflower; Rate 16 g/ha): 0; Plant response rating, Sunflower (Sunflower; Rate 31 g/ha): 0; Plant response rating, Ragweed, Common [1, 2]: 0; Plant response rating, Ragweed, Common ([1]; preemergence, Rate 16 g/ha, scale 0 to 100): 0; Plant response rating, Ragweed, Common [1, 3]: 0
CC(C)(C)c1ccn(C2CCN(c3cccc(OC(F)F)c3)C2=O)n1 (stereo not drawn) [Compound 76] | – | 0 | 0 | 0 | – | – | –
Cc1ccc(N2CCC(n3ccc(C(C)(C)C)n3)C2=O)cc1OC(F)F (stereo not drawn) [Compound 79] | – | 100 | 100 | 100 | – | – | –
CCC(C)c1ccn(C2CCN(c3cccc(OC)c3)C2=O)n1 (stereo not drawn) [Compound 95] | – | 0 | 10 | 0 | 0 | 0 | –
CCCC(C)c1ccn(C2CCN(c3cccc(C(F)(F)F)c3)C2=O)n1 (stereo not drawn) [Compound 100] | – | 0 | 0 | 0 | 0 | 0 | –
CC(C)c1ccn(C2SCN(c3cccc(OC(F)F)c3)C2=O)n1 (stereo not drawn) [Compound 44] | 0 | – | – | – | – | – | Plant response rating, Ragweed, Common [1, 8]: 50; Plant response rating, Ragweed, Common [1, 2]: 0; Plant response rating (0 to 100), Ragweed, Common ([1]; preemergence, Rate 250 g/ha): 50
CCCC(C)c1ccn(C2OCN(c3cccc(C(F)(F)F)c3)C2=O)n1 (stereo not drawn) [Compound 89] | – | 0 | 0 | 0 | 0 | 0 | –
CC(C)(C)c1ccn(C2CCN(c3ccc(F)c(Br)c3)C2=O)n1 (stereo not drawn) [Compound 75] | – | 0 | 60 | 0 | – | – | –
CC(C)(C)c1ccn(C2CCN(c3cccc([S+]([O-])C(F)(F)F)c3)C2=O)n1 (stereo not drawn) [Compound 101] | – | 100 | – | 100 | 0 | 0 | Plant response rating, Sunflower (Sunflower; Rate 31 g/ha): 0; Plant response rating, Ragweed, Common [1, 3]: 0
CCC(C)c1ccn(C2OCN(c3cccc(OC(F)(F)F)c3)C2=O)n1 (stereo not drawn) [Compound 67] | 20 | – | 70 | 70 | – | – | –
COc1cccc(N2CCC(n3ccc(C(C)(C)C)n3)C2=O)c1 (stereo not drawn) [Compound 87] | – | 0 | 0 | 0 | 20 | 0 | –
CCC(C)Oc1cccc(N2CCC(n3ccc(C(C)(C)C)n3)C2=O)c1 (stereo not drawn) [Compound 127] | – | 0 | 10 | 10 | 0 | 0 | –
O=C1C(n2ccc(C3CCC3)n2)OCN1c1cccc(C(F)(F)F)c1 (stereo not drawn) [Compound 39] | 0 | – | – | – | – | – | Plant response rating, Ragweed, Common [1, 8]: 20; Plant response rating, Ragweed, Common [1, 2]: 0; Plant response rating (0 to 100), Ragweed, Common ([1]; preemergence, Rate 250 g/ha): 0
CCC(CC)c1ccn(C2CCN(c3cccc(OC)c3)C2=O)n1 (stereo not drawn) [Compound 96] | – | 0 | 70 | 40 | 0 | 0 | –
CCCC(C)c1ccn(C2SCN(c3cccc(C(F)(F)F)c3)C2=O)n1 (stereo not drawn) [Compound 92] | – | 0 | 40 | 0 | 0 | 0 | –
COC(=O)c1cccc(N2CCC(n3ccc(C(C)(C)C)n3)C2=O)c1 (stereo not drawn) [Compound 73] | – | 80 | – | 100 | – | – | Plant response rating, Sunflower (Sunflower; Rate 31 g/ha): 40; Plant response rating, Ragweed, Common [1, 3]: 30
COc1cc(OC)cc(N2CCC(n3ccc(C(C)(C)C)n3)C2=O)c1 (stereo not drawn) [Compound 71] | 0 | – | 30 | 0 | – | – | –
CC1(c2ccn(C3SCN(c4cccc(OC(F)(F)F)c4)C3=O)n2)CC1 (stereo not drawn) [Compound 63] | 50 | – | 90 | 50 | – | – | –
CC(C)(C)c1ccn(C2CCN(c3cccc(I)c3)C2=O)n1 (stereo not drawn) [Compound 88] | – | 0 | 20 | 0 | 10 | 0 | –
CCC(CC)c1ccn(C2CCN(c3cccc(OC(C)C)c3)C2=O)n1 (stereo not drawn) [Compound 84] | – | 0 | 0 | 0 | 0 | 0 | –
CCCC(C)c1ccn(C2CCN(c3cccc(OCC)c3)C2=O)n1 (stereo not drawn) [Compound 129] | – | 0 | 100 | 100 | 0 | 0 | –
CC1(c2ccn(C3OCN(c4cccc(C(F)(F)F)c4)C3=O)n2)CC1 (stereo not drawn) [Compound 62] | 0 | – | 0 | – | – | – | Plant response rating (0 to 100), Ragweed, Common ([1]; preemergence, Rate 250 g/ha): 0
CC1(c2ccn(C3SCN(c4cccc(C(F)(F)F)c4)C3=O)n2)CC1 (stereo not drawn) [Compound 64] | 50 | – | 90 | 80 | – | – | –
CCCC(C)c1ccn(C2SCN(c3cccc(OC(F)(F)F)c3)C2=O)n1 (stereo not drawn) [Compound 90] | – | 0 | – | 0 | 0 | 0 | Plant response rating, Sunflower (Sunflower; Rate 31 g/ha): 0; Plant response rating, Ragweed, Common [1, 3]: 0
CC(C)Oc1cccc(N2CCC(n3ccc(C(C)C)n3)C2=O)c1 (stereo not drawn) [Compound 82] | – | 0 | 100 | 50 | – | – | –
O=C1C(n2ccc(C3CCC3)n2)SCN1c1cccc(OC(F)F)c1 (stereo not drawn) [Compound 45] | 0 | – | – | – | – | – | Plant response rating, Ragweed, Common [1, 8]: 60; Plant response rating, Ragweed, Common [1, 2]: 0; Plant response rating (0 to 100), Ragweed, Common ([1]; preemergence, Rate 250 g/ha): 30
CCOC(=O)c1cccc(N2CCC(n3ccc(C(C)(C)C)n3)C2=O)c1 (stereo not drawn) [Compound 72] | 0 | – | 90 | 70 | – | – | –
CCC(C)c1ccn(C2CCN(c3cccc(OC(C)C)c3)C2=O)n1 (stereo not drawn) [Compound 83] | – | 0 | 100 | 0 | – | – | –
